In ChEMBL document CHEMBL3627619, “Synthesis and biological profiling of 6- or 7-(het)aryl-7-deazapurine 4'-C-methylribonucleosides” (Bioorg Med Chem, 2015):

Tests used:
Hepatitis C virus = assay: Antiviral activity against Hepatitis C virus subtype 1b replicon infected in human HuH7 cells; type: functional, cell-based, Hepacivirus hominis; conditions: genotype 1b, Huh-7
[1] = Cytotoxicity against human BJ cells after 3 days by MTT assay; type: cell-based
[2] = Cytotoxicity against human MRC5 cells after 3 days by MTT assay; type: cell-based
CCRF-CEM = assay: Cytotoxicity against human CCRF-CEM cells after 3 days by MTT assay; type: functional, cell-based; conditions: 72 h
[3] = Cytotoxicity against human CEM/DNR cells after 3 days by MTT assay; type: functional, cell-based; conditions: 72 h
K562 = assay: Cytotoxicity against human K562 cells after 3 days by MTT assay; type: functional, cell-based; conditions: K562, 72 h
[4] = Cytotoxicity against human K562-TAX cells after 3 days by MTT assay; type: functional, cell-based; conditions: 72 h
A549 = assay: Cytotoxicity against human A549 cells after 3 days by MTT assay; type: functional, cell-based; conditions: A549, 72 h
HCT-116 [5] = assay: Cytotoxicity against human HCT116 cells after 3 days by MTT assay; type: functional, cell-based; conditions: HCT-116, 72 h
HCT-116 [6] = assay: Cytotoxicity against p53 deficient human HCT116 cells after 3 days by MTT assay; type: functional, cell-based; conditions: HCT-116, 72 h
[7] = Cytotoxicity against human HuH7 cells; type: cell-based, Huh-7
dengue virus type 2 = assay: Antiviral activity against DENV2 infected in African green monkey Vero cells; type: functional, organism-based
[8] = Cytotoxicity against African green monkey Vero cells; type: cell-based; conditions: chlorocebus sabaeus
[9] = Selectivity index, ratio of CC50 for human HuH7 cells to EC50 for Hepatitis C virus subtype 1b replicon infected in human HuH7 cells; type: toxicity, cell-based, Huh-7; conditions: read-out: Ratio CC50/EC50

Work on `C[C@]1(CO)O[C@@H](n2cc(I)c3c(N)ncnc32)[C@H](O)[C@@H]1O` yielded an EC50 (Hepatitis C virus) of 3.75 µM, a CC50 at 72 h [1] of 42.4 µM and a CC50 at 72 h [2] of 40.8 µM. For the same molecule, the IC50 (CCRF-CEM) was 10.2 µM, the IC50 [3] was 27.9 µM and the IC50 (K562) was 20.4 µM. The IC50 [4] was 9.46 µM, the IC50 (A549) was 5.92 µM and the IC50 (HCT-116 [5]) was 5.25 µM. For the same molecule, the IC50 (HCT-116 [6]) was 5.87 µM, the CC50 [7] was 27.1 µM and the EC50 (dengue virus type 2) was 5.55 µM. The CC50 [8] was 8.08 µM and the selectivity ratio [9] was 7.2.

For `C[C@]1(CO)O[C@@H](n2cc(-c3ccco3)c3c(N)ncnc32)[C@H](O)[C@@H]1O`, the EC50 (Hepatitis C virus) was 20 µM, the CC50 [7] was > 44 µM and the EC50 (dengue virus type 2) was > 50 µM. The CC50 [8] was > 50 µM.

For `C[C@]1(CO)O[C@@H](n2cc(-c3cccs3)c3c(N)ncnc32)[C@H](O)[C@@H]1O`, the EC50 (Hepatitis C virus) was 17.9 µM, the CC50 [7] was > 44 µM and the EC50 (dengue virus type 2) was > 50 µM. For the same molecule, the CC50 [8] was > 50 µM.

With `C[C@]1(CO)O[C@@H](n2cc(-c3ccsc3)c3c(N)ncnc32)[C@H](O)[C@@H]1O` the EC50 (Hepatitis C virus) was 40.6 µM, the CC50 [7] was > 44 µM and the EC50 (dengue virus type 2) was > 50 µM. For the same molecule, the CC50 [8] was > 50 µM.

For `C[C@]1(CO)O[C@@H](n2cc(-c3cc4ccccc4o3)c3c(N)ncnc32)[C@H](O)[C@@H]1O`, the EC50 (Hepatitis C virus) was 4.48 µM, the CC50 at 72 h [1] was 104 µM and the CC50 at 72 h [2] was 83.7 µM. It also gave an IC50 (CCRF-CEM) of 16.6 µM, an IC50 [3] of 8.94 µM and an IC50 (K562) of 9.64 µM. For the same molecule, the IC50 [4] was 8.82 µM, the IC50 (A549) was 7.13 µM and the IC50 (HCT-116 [5]) was 9.75 µM. For the same molecule, the IC50 (HCT-116 [6]) was 10.7 µM, the CC50 [7] was 31.1 µM and the EC50 (dengue virus type 2) was 10.1 µM. The CC50 [8] was 27 µM.

For `C#Cc1cn([C@@H]2O[C@](C)(CO)[C@@H](O)[C@H]2O)c2ncnc(N)c12`, the EC50 (Hepatitis C virus) was 6.27 µM, the CC50 at 72 h [1] was 126 µM and the CC50 at 72 h [2] was 125 µM. For the same molecule, the IC50 (CCRF-CEM) was 30.3 µM, the IC50 [3] was 38.4 µM and the IC50 (K562) was 31.1 µM. The IC50 [4] was 27.4 µM, the IC50 (A549) was 9.55 µM and the IC50 (HCT-116 [5]) was 8.79 µM. The IC50 (HCT-116 [6]) was 10.2 µM, the CC50 [7] was 32.2 µM and the EC50 (dengue virus type 2) was 4.59 µM. The CC50 [8] was 13.4 µM.

In the case of `C[C@]1(CO)O[C@@H](n2ccc3c(-c4cc5ccccc5o4)ncnc32)[C@H](O)[C@@H]1O`, the EC50 (Hepatitis C virus) is reported as 7.62 µM, the CC50 [7] is reported as > 44 µM and the EC50 (dengue virus type 2) is reported as > 50 µM. For the same molecule, the CC50 [8] was > 50 µM.

With `CCOC(=O)[C@H](C)NP(=O)(OC[C@@]1(C)O[C@@H](n2cc(-c3ccco3)c3c(N)ncnc32)[C@H](O)[C@@H]1O)Oc1ccccc1` (stereo not given in full) the EC50 (Hepatitis C virus) was > 44 µM and the CC50 [7] was 20.8 µM.

In the case of `CCOC(=O)[C@H](C)NP(=O)(OC[C@@]1(C)O[C@@H](n2cc(-c3cccs3)c3c(N)ncnc32)[C@H](O)[C@@H]1O)Oc1ccccc1` (stereo not given in full), the EC50 (Hepatitis C virus) is reported as 23.2 µM and the CC50 [7] is reported as 13 µM.

With `CCOC(=O)[C@H](C)NP(=O)(OC[C@@]1(C)O[C@@H](n2cc(-c3ccccc3)c3c(N)ncnc32)[C@H](O)[C@@H]1O)Oc1ccccc1` (stereo not given in full) the EC50 (Hepatitis C virus) was 18 µM and the CC50 [7] was 9.1 µM.

For `CCOC(=O)[C@H](C)NP(=O)(OC[C@@]1(C)O[C@@H](n2ccc3c(-c4ccco4)ncnc32)[C@H](O)[C@@H]1O)Oc1ccccc1` (stereo not given in full), the EC50 (Hepatitis C virus) was 17.6 µM, the CC50 [7] was 27.9 µM and the EC50 (dengue virus type 2) was > 50 µM. The CC50 [8] was > 50 µM.

For `CCOC(=O)[C@H](C)NP(=O)(OC[C@@]1(C)O[C@@H](n2ccc3c(-c4cccs4)ncnc32)[C@H](O)[C@@H]1O)Oc1ccccc1` (stereo not given in full), the EC50 (Hepatitis C virus) was 3.32 µM, the CC50 at 72 h [1] was 83.1 µM and the CC50 at 72 h [2] was 106 µM. For the same molecule, the IC50 (CCRF-CEM) was 12.3 µM, the IC50 [3] was 43.1 µM and the IC50 (K562) was 22.9 µM. It also gave an IC50 [4] of 33.6 µM, an IC50 (A549) of 22.2 µM and an IC50 (HCT-116 [5]) of 19.4 µM. It also gave an IC50 (HCT-116 [6]) of 22 µM and a CC50 [7] of 3.64 µM.

`CCOC(=O)[C@H](C)NP(=O)(OC[C@@]1(C)O[C@@H](n2ccc3c(-c4ccccc4)ncnc32)[C@H](O)[C@@H]1O)Oc1ccccc1` (stereo not given in full) showed an EC50 (Hepatitis C virus) of 16.5 µM, a CC50 at 72 h [1] of 75.3 µM and a CC50 at 72 h [2] of 108 µM. It also gave an IC50 (CCRF-CEM) of 17.4 µM, an IC50 [3] of 43.6 µM and an IC50 (K562) of 29.9 µM. The IC50 [4] was 35.4 µM, the IC50 (A549) was 25.9 µM and the IC50 (HCT-116 [5]) was 22.2 µM. The IC50 (HCT-116 [6]) was 22.8 µM, the CC50 [7] was > 44 µM and the EC50 (dengue virus type 2) was > 50 µM. For the same molecule, the CC50 [8] was > 50 µM.
